Laboratory results reported in the supplement of paper PMC10307832.

Experiments:
Experiment in all cases: relative viability (nuclei count vs DMSO), 5 days (fraction); higher = more cells survive
LCLC-103H = tested on: LCLC-103H
Summary of the method: (§1)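 Relative viability divides the nuclei count in treated wells by that in vehicle wells. Lung cancer cell lines were seeded in 1536-well plates, dosed by pin tool the next day, and fixed and stained after 5 days in one step with final 0.05% Triton X-100, 1% formaldehyde and 1 ug/ml Hoechst. Dosing was a single drug or a fixed anchor-drug dose plus five library-drug doses (not always all listed) in √10 steps, and values are medians of duplicate plates imaged at 4×.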

LXF-289 = tested on: LXF-289
Summary of the method: as §1

NCI-H1355 = tested on: NCI-H1355
Summary of the method: as §1

NCI-H1651 = tested on: NCI-H1651
Summary of the method: as §1

NCI-H1755 = tested on: NCI-H1755
Summary of the method: as §1

NCI-H1792 = tested on: NCI-H1792
Summary of the method: as §1

NCI-H1915 = tested on: NCI-H1915
Summary of the method: as §1

NCI-H2347 = tested on: NCI-H2347
Summary of the method: as §1

NCI-H3122 = tested on: NCI-H3122
Summary of the method: as §1

NCI-H322M = tested on: NCI-H322M
Summary of the method: as §1

NCI-H441 = tested on: NCI-H441
Summary of the method: as §1

NCI-H460 = tested on: NCI-H460
Summary of the method: as §1

NCI-H520 = tested on: NCI-H520
Summary of the method: as §1

NCI-H522 = tested on: NCI-H522
Summary of the method: as §1

NCI-H596 = tested on: NCI-H596
Summary of the method: as §1

NCI-H661 = tested on: NCI-H661
Summary of the method: as §1

NCI-H727 = tested on: NCI-H727
Summary of the method: as §1

PC-14 = tested on: PC-14
Summary of the method: as §1

RERF-LC-KJ = tested on: RERF-LC-KJ
Summary of the method: as §1

SK-MES-1 = tested on: SK-MES-1
Summary of the method: as §1

SW 900 = tested on: SW 900
Summary of the method: as §1

`COc1cc2nccc(Oc3ccc(NC(=O)Nc4cc(C)on4)c(Cl)c3)c2cc1OC` [Tivozanib] + CC(=O)Nc1cccc(-n2c(=O)n(C3CC3)c(=O)c3c(Nc4ccc(I)cc4F)n(C)c(=O)c(C)c32)c1 [Trametinib] (partner 0.02 µM) showed a relative viability (LCLC-103H; first compound 0.005 µM) of 0.673, a relative viability (LCLC-103H; first compound 0.01581 µM) of 0.78 and a relative viability (LCLC-103H; first compound 0.05 µM) of 0.694. For the same compound, the relative viability (LCLC-103H; first compound 0.1581 µM) was 0.729, the relative viability (LCLC-103H; first compound 0.5 µM) was 0.695 and the relative viability (LXF-289; first compound 0.005 µM) was 0.698. For the same compound, the relative viability (LXF-289; first compound 0.01581 µM) was 0.674, the relative viability (LXF-289; first compound 0.05 µM) was 0.629 and the relative viability (LXF-289; first compound 0.1581 µM) was 0.646. It also gave a relative viability (LXF-289; first compound 0.5 µM) of 0.668, a relative viability (NCI-H1355; first compound 0.005 µM) of 0.413 and a relative viability (NCI-H1355; first compound 0.01581 µM) of 0.432. It also gave a relative viability (NCI-H1355; first compound 0.05 µM) of 0.455, a relative viability (NCI-H1355; first compound 0.1581 µM) of 0.33 and a relative viability (NCI-H1355; first compound 0.5 µM) of 0.408. The relative viability (NCI-H1651; first compound 0.005 µM) was 0.816, the relative viability (NCI-H1651; first compound 0.01581 µM) was 0.808 and the relative viability (NCI-H1651; first compound 0.05 µM) was 0.821. It also gave a relative viability (NCI-H1651; first compound 0.1581 µM) of 0.866, a relative viability (NCI-H1651; first compound 0.5 µM) of 0.828 and a relative viability (NCI-H1755; first compound 0.005 µM) of 0.664. It also gave a relative viability (NCI-H1755; first compound 0.01581 µM) of 0.75, a relative viability (NCI-H1755; first compound 0.05 µM) of 0.804 and a relative viability (NCI-H1755; first compound 0.1581 µM) of 0.739. It also gave a relative viability (NCI-H1755; first compound 0.5 µM) of 0.77, a relative viability (NCI-H1792; first compound 0.005 µM) of 0.401 and a relative viability (NCI-H1792; first compound 0.01581 µM) of 0.397. For the same compound, the relative viability (NCI-H1792; first compound 0.05 µM) was 0.438, the relative viability (NCI-H1792; first compound 0.5 µM) was 0.632 and the relative viability (NCI-H1915; first compound 0.005 µM) was 0.318. For the same compound, the relative viability (NCI-H1915; first compound 0.01581 µM) was 0.305, the relative viability (NCI-H1915; first compound 0.05 µM) was 0.3 and the relative viability (NCI-H1915; first compound 0.1581 µM) was 0.273. The relative viability (NCI-H1915; first compound 0.5 µM) was 0.304, the relative viability (NCI-H2347; first compound 0.005 µM) was 0.311 and the relative viability (NCI-H2347; first compound 0.01581 µM) was 0.27. The relative viability (NCI-H2347; first compound 0.05 µM) was 0.294, the relative viability (NCI-H2347; first compound 0.1581 µM) was 0.317 and the relative viability (NCI-H2347; first compound 0.5 µM) was 0.284. It also gave a relative viability (NCI-H3122; first compound 0.005 µM) of 0.197, a relative viability (NCI-H3122; first compound 0.01581 µM) of 0.213 and a relative viability (NCI-H3122; first compound 0.05 µM) of 0.229. The relative viability (NCI-H3122; first compound 0.1581 µM) was 0.235, the relative viability (NCI-H3122; first compound 0.5 µM) was 0.321 and the relative viability (NCI-H322M; first compound 0.005 µM) was 0.509. It also gave a relative viability (NCI-H322M; first compound 0.01581 µM) of 0.602, a relative viability (NCI-H322M; first compound 0.05 µM) of 0.55 and a relative viability (NCI-H322M; first compound 0.1581 µM) of 0.517. The relative viability (NCI-H322M; first compound 0.5 µM) was 0.577, the relative viability (NCI-H441; first compound 0.005 µM) was 0.405 and the relative viability (NCI-H441; first compound 0.01581 µM) was 0.489. It also gave a relative viability (NCI-H441; first compound 0.05 µM) of 0.551, a relative viability (NCI-H441; first compound 0.1581 µM) of 0.367 and a relative viability (NCI-H441; first compound 0.5 µM) of 0.433. The relative viability (NCI-H460; first compound 0.005 µM) was 0.13, the relative viability (NCI-H460; first compound 0.01581 µM) was 0.192 and the relative viability (NCI-H460; first compound 0.05 µM) was 0.254. It also gave a relative viability (NCI-H460; first compound 0.1581 µM) of 0.13, a relative viability (NCI-H460; first compound 0.5 µM) of 0.236 and a relative viability (NCI-H520; first compound 0.005 µM) of 0.658. It also gave a relative viability (NCI-H520; first compound 0.01581 µM) of 0.771, a relative viability (NCI-H520; first compound 0.05 µM) of 0.612 and a relative viability (NCI-H520; first compound 0.1581 µM) of 0.475. The relative viability (NCI-H520; first compound 0.5 µM) was 0.646, the relative viability (NCI-H522; first compound 0.005 µM) was 0.877 and the relative viability (NCI-H522; first compound 0.01581 µM) was 0.732. For the same compound, the relative viability (NCI-H522; first compound 0.05 µM) was 0.705, the relative viability (NCI-H522; first compound 0.1581 µM) was 0.684 and the relative viability (NCI-H522; first compound 0.5 µM) was 0.804. For the same compound, the relative viability (NCI-H596; first compound 0.005 µM) was 0.653, the relative viability (NCI-H596; first compound 0.01581 µM) was 0.834 and the relative viability (NCI-H596; first compound 0.05 µM) was 0.725. The relative viability (NCI-H596; first compound 0.5 µM) was 0.931, the relative viability (NCI-H661; first compound 0.005 µM) was 0.588 and the relative viability (NCI-H661; first compound 0.01581 µM) was 0.562. For the same compound, the relative viability (NCI-H661; first compound 0.05 µM) was 0.618, the relative viability (NCI-H661; first compound 0.1581 µM) was 0.522 and the relative viability (NCI-H661; first compound 0.5 µM) was 0.641. It also gave a relative viability (NCI-H727; first compound 0.005 µM) of 0.385, a relative viability (NCI-H727; first compound 0.01581 µM) of 0.419 and a relative viability (NCI-H727; first compound 0.05 µM) of 0.366. For the same compound, the relative viability (NCI-H727; first compound 0.1581 µM) was 0.38, the relative viability (NCI-H727; first compound 0.5 µM) was 0.398 and the relative viability (PC-14; first compound 0.005 µM) was 0.654. It also gave a relative viability (PC-14; first compound 0.01581 µM) of 0.766, a relative viability (PC-14; first compound 0.05 µM) of 0.844 and a relative viability (PC-14; first compound 0.1581 µM) of 0.84. The relative viability (PC-14; first compound 0.5 µM) was 0.751, the relative viability (RERF-LC-KJ; first compound 0.005 µM) was 0.758 and the relative viability (RERF-LC-KJ; first compound 0.01581 µM) was 0.989. It also gave a relative viability (RERF-LC-KJ; first compound 0.05 µM) of 0.805, a relative viability (RERF-LC-KJ; first compound 0.1581 µM) of 0.859 and a relative viability (RERF-LC-KJ; first compound 0.5 µM) of 0.805. It also gave a relative viability (SK-MES-1; first compound 0.005 µM) of 0.542, a relative viability (SK-MES-1; first compound 0.01581 µM) of 0.602 and a relative viability (SK-MES-1; first compound 0.05 µM) of 0.558. For the same compound, the relative viability (SK-MES-1; first compound 0.1581 µM) was 0.542, the relative viability (SK-MES-1; first compound 0.5 µM) was 0.7 and the relative viability (SW 900; first compound 0.005 µM) was 0.692. For the same compound, the relative viability (SW 900; first compound 0.01581 µM) was 1.18, the relative viability (SW 900; first compound 0.05 µM) was 1.04 and the relative viability (SW 900; first compound 0.5 µM) was 0.829.
